Assay results as given in US8338414B2, “Immunosuppressive agent and anti-tumor agent comprising heterocyclic compound as active ingredient” (Zenyaku Kogyo KabushikiKaisha, priority 2005, dated 2012).
Where two headings read alike, the source gives them in different places.

Legend:
[1] = system: PC-3 prostate cancer cells; experiment: Proliferation inhibitory activity on solid tumor cells, PC-3; format: cell-based; details: 72 hours
Method: (§1) Used in the test were MCF-7 cells which were established from human breast cancer and were cultured routinely under the conditions of 37° C. and 5% CO2, in MEM medium supplemented with 10% fetal calf serum, 25 mM of HEPES and 0.1 mg/ml kanamycin. The MCF-7 cells in a logarithmic growth phase were treated with trypsin/EDTA to prepare single cell suspension adjusted to 4.0×10^4 cells/ml in MEM medium (supplemented with 10% fetal calf serum, 25 mM of HEPES and 0.1 mg/ml kanamycin). Test compounds were dissolved in DMSO and diluted with RPMI 1640 medium (supplemented with 10% fetal calf serum, 25 mM of HEPES and 0.1 mg/ml kanamycin) to a concentration of […] to 2.0×10^−9M.
(§2) The cell suspension was filled in a 96-wells microplate at a rate of 0.1 ml per well and was cultured for 24 hours so as to make the cells to adhere to the microplate. Then, it was added with 0.1 ml of the sample solution and cultured at 37° C. for 72 hours in 5% CO2.
(§3) 50% Growth inhibition concentrations (GI50 μM) were calculated from growth inhibitions at various sample concentrations.
(§4) In the foregoing, when the cells other than MCF-7 are used, instead of adding 10% fetal bovine serum, the following media were used, and the following single cell suspensions were prepared. • PC-3 prostate cancer cells: 10% fetal bovine serum in F12K medium, single cell suspension of 2×10^4 cells; • A549 lung cancer cells: 10% fetal bovine serum in DMEM medium, single cell suspension of 1.5×10^4 cells; • WiDr colon cancer cells: 10% fetal bovine serum in MEM medium, single cell suspension of 3×10^4 cells; • B16F10 melanoma cells: 10% fetal bovine serum in RPMI 1640 medium, single cell suspension of 1×10^4 cells;

mouse spleen cells = experiment: Proliferation inhibition assay for mouse spleen cells; format: cell-based; details: 72 h, 3 days, Alamar Blue
Method: Spleen cells (2×10^6 cells/mL) prepared from C57BL/6N female mice (8 weeks old, purchased from Charles River Laboratories Japan Inc.) were suspended in RPMI 1640 medium (containing 10% fetal bovine serum, 10 mM HEPES, 1 mM pyruvic acid, 4.5 g/L glucose, 100 units/mL penicillin, and 0.1 mg/mL streptomycin), and seeded in wells of a 96 well plate at 0.225 mL per well. Serial dilutions of test substances were added to respective wells, and then concanavalin A (Con A, 3 μg/mL), lipopolysaccharide (LPS, 100 μg/mL), or an anti-mouse IgM antibody (100 μg/mL) were added. Thereafter, they were incubated under conditions of carbon dioxide 5% at a temperature 37° C. for 3 days. Next, Alamar Blue solution was added at 50 μL per 150 μL, and after having cultured for one day, the fluorescence intensity at 590 nm using an excitation wavelength of 530 nm was determined by Cytoflour 4000 (Applied Biosystems).

B16F10 melanoma cells = experiment: Proliferation inhibitory activity on solid tumor cells, B16F10; format: cell-based; details: Mus musculus, B16-F10; 72 hours
Method: as §1, §2, §3, §4

THP-1 cells = experiment: Proliferation inhibitory activity on hematologic neoplasm cells, THP-1; format: cell-based; details: Homo sapiens, THP-1, 72 h; 3 days, Alamar Blue
Method: (§5) Daudi cells (5×10^5 cells/mL), Jurkat cells (5×10^5 cells/mL), THP-1 cells (5×10^5 cells/mL), U 937 cells (5×10^5 cells/mL), and HL 60 cells (5×10^5 cells/mL) suspended in RPMI 1640 medium (containing 10% fetal bovine serum, 10 mM HEPES, 1 mM pyruvic acid, 4.5 g/L glucose, 100 units/mL penicillin, and 0.1 mg/mL streptomycin) were seeded in 96 well plates at a capacity of 0.135 mL per well. Serial dilutions of test substances were added to respective wells at 15 μL/well, and incubated under conditions of carbon dioxide 5% at 37° C. for 3 days. Thereafter, Alamar Blue solution was added at 50 μL, and after incubation for one day, the fluorescence intensity at 590 nm using an excitation wavelength of 530 nm was determined by Cytoflour 4000 (Applied Biosystems).

Jurkat cells = experiment: Proliferation inhibitory activity on hematologic neoplasm cells, Jurkat; format: cell-based; details: Homo sapiens, Jurkat, 72 h; 3 days, Alamar Blue
Method: as §5

WiDr colon cancer cells = experiment: Proliferation inhibitory activity on solid tumor cells, WiDr; format: cell-based; details: Homo sapiens, 72 hours
Method: as §1, §2, §3, §4

Daudi cells = experiment: Proliferation inhibitory activity on hematologic neoplasm cells, Daudi; format: cell-based; details: Homo sapiens, Daudi, 72 h; 3 days, Alamar Blue
Method: as §5

MCF-7 cells = experiment: Proliferation inhibitory activity on solid tumor cells, MCF-7; format: cell-based; details: Homo sapiens, MCF7; 72 hours
Method: as §1, §2, §3

A549 lung cancer cells = experiment: Proliferation inhibitory activity on solid tumor cells, A549; format: cell-based; details: Homo sapiens, 72 hours
Method: as §1, §2, §3, §4

[2] = system: Rabbit synoviocytes HIG-82; experiment: Inhibition assay for proliferation of rabbit synoviocyte; format: cell-based; details: Oryctolagus cuniculus, 72 h; HIG-82, 3 days, Alamar Blue
Method: Rabbit synoviocytes HIG-82 suspended in HAM medium (containing 10% fetal bovine serum, 25 mM HEPES, and 0.1 mg/mL kanamycin) (with 4×10^4 cells/mL) were seeded in wells of a 96 well plate at 0.135 mL per well. Then, 15 μL of each of serial dilutions of test substances was added to a respective well, and incubated under conditions of carbon dioxide 5% at a temperature 37° C. Alamar Blue solution was added at 50 μL per well on day 0 and day 3, and incubated for one day, and thereafter fluorescence intensity at 590 nm using an excitation wavelength of 530 nm was determined by Cytoflour 4000 (Applied Biosystems).

[3] = LPS 100 μg/mL, read-out: Inhibition of LPS response
[4] = concanavalin A 3 μg/mL, read-out: Inhibition of Con A response

| Structure (SMILES) | GI50 [1] | IC50 (mouse spleen cells; [3]) | IC50 (mouse spleen cells; [4]) | GI50 (B16F10 melanoma cells) | IC50 (THP-1 cells) | IC50 (Jurkat cells) | GI50 (WiDr colon cancer cells) | IC50 (Daudi cells) | GI50 (MCF-7 cells) | GI50 (A549 lung cancer cells) | melting point | IC50 [2] |
| --- | --- | --- | --- | --- | --- | --- | --- | --- | --- | --- | --- | --- |
| O=C1CCN(c2nc(N3CCOCC3)nc(-n3c(C(F)F)nc4ccccc43)n2)CCN1 [Compound 25, 2-(2-Difluoromethylbenzimidazol-1-yl)-4-morpholino-6-(5-oxo-1,4-diazepan-1-yl)-1,3,5-triazine] | 0.27 µM | 0.1 to 10 µM | 0.001 to 0.1 µM | 3.21 µM | 0.379 µM | 1.59 µM | 0.92 µM | 0.19 µM | 0.98 µM | 0.99 µM | 235 to 237 °C | 0.99 µM |
| O=C(Cc1ccccc1)N1CCN(c2nc(N3CCOCC3)nc(-n3c(C(F)F)nc4ccccc43)n2)CC1 [Compound 29, 2-(2-Difluoromethylbenzimidazol-1-yl)-4-(4-benzylcarbonylpiperazin-1-yl)-6-morpholino-1,3,5-triazine] | 0.32 µM |  |  | 3.93 µM |  |  | 2.58 µM |  | 0.7 µM | 1.32 µM | 178 to 181 °C |  |
| COCC(=O)N1CCN(c2nc(N3CCOCC3)nc(-n3c(C(F)F)nc4ccccc43)n2)CC1 [Compound 33, 2-(2-Difluoromethylbenzimidazol-1-yl)-4-(4-methoxylacetylpiperazin-1-yl)-6-morpholino-1,3,5-triazine] | 0.51 µM |  |  | 2.91 µM |  |  | 1.46 µM |  | < 0.04 µM | 1.05 µM | 72 to 75 °C |  |
| OCCCN1CCN(c2nc(N3CCOCC3)nc(-n3c(C(F)F)nc4ccccc43)n2)CC1 [Compound 34, 2-(2-Difluoromethylbenzimidazol-1-yl)-4-[4-(3-hydroxypropyl)piperazin-1-yl]-6-morpholino-1,3,5-triazine] | 0.55 µM |  |  | 2.91 µM |  |  | 2.07 µM |  | 0.14 µM | 1.38 µM |  |  |
| CC(=O)CN1CCN(c2nc(N3CCOCC3)nc(-n3c(C(F)F)nc4ccccc43)n2)CC1 [Compound 30, 4-(4-Acetonylpiperazin-1-yl)-2-(2-difluoromethylbenzimidazol-1-yl)-6-morpholino-1,3,5-triazine] | 0.77 µM |  |  | 3.32 µM |  |  | 3.74 µM |  | 0.41 µM | 1.52 µM | 79 to 81 °C |  |
| CN(C)C(=O)N1CCN(c2nc(N3CCOCC3)nc(-n3c(C(F)F)nc4ccccc43)n2)CC1 [Compound 32, 2-(2-Difluoromethylbenzimidazol-1-yl)-4-[4-(N,N-dimethylcarbamoyl)piperazin-1-yl]-6-morpholino-1,3,5-triazine] | 0.38 µM |  |  | 2.14 µM |  |  | 1.33 µM |  | < 0.04 µM | 0.83 µM | 203 to 205 °C |  |
| CCC(=O)N1CCN(c2nc(N3CCOCC3)nc(-n3c(C(F)F)nc4ccccc43)n2)CC1 [Compound 35, 2-(2-Difluoromethylbenzimidazol-1-yl)-4-morpholino-6-(4-propionylpiperazin-1-yl)-1,3,5-triazine] | 0.73 µM |  |  | 2.84 µM |  |  | 2.1 µM |  | 0.1 µM | 1.22 µM | 198 to 202 °C |  |
| OCCN1CCN(c2nc(N3CCOCC3)nc(-n3c(C(F)F)nc4ccccc43)n2)CC1 [Compound 27, 2-(2-Difluoromethylbenzimidazol-1-yl)-4-[4-(2-hydroxyethyl)piperazin-1-yl]-6-morpholino-1,3,5-triazine] | 0.31 µM | 0.1 to 10 µM | ≤ 0.001 µM | 4.63 µM | 0.73 µM | 3.6 µM | 1.32 µM | 0.324 µM | 1.14 µM | 1.12 µM | 174 to 177 °C | 1.56 µM |
| O=C(c1ccco1)N1CCN(c2nc(N3CCOCC3)nc(-n3c(C(F)F)nc4ccccc43)n2)CC1 [Compound 31, 2-(2-Difluoromethylbenzimidazol-1-yl)-4-[4-(2-furoyl)piperazin-1-yl]-6-morpholino-1,3,5-triazine] | 0.32 µM |  |  | 1.51 µM |  |  | 1.43 µM |  | 0.05 µM | 0.65 µM | 220 to 222 °C |  |
